# Results taken from patent US10485772B2, “Compositions for modulating cancer stem cells and uses therefor” (University of Canberra, priority 2014, dated 2019).
# “Also recorded” adds a separate entry of the source.
# Key:
# Assay type in all cases: cell-based, human
# [1] = test system: CD44^high/CD24^low CSC-like subpopulation of PMA-stimulated MCF-7 cells (MCF-IM model); test: FACS analysis of CD44high/CD24low CSC-like subpopulation in MCF-IM model; settings: for CD44 high CD24 low-CSC-like subpopulation (CSC formation) by FACS: NCD38 5 μM for 17 hr prior to PMA stimulation for 60 hours
# Protocol: (§1) Cells from each well/flask were harvested by means of trypsin treatment followed by two washes with PBS. Washed cells then re-suspended in an antibody cocktail consisting anti-CD44-APC, anti-CD24-PE antibodies (details in Table 5) and Hoechst 33258 dye (final dilution of 1:1000) (Invitrogen, Carlsbad, Calif.) in 1% FCS-PBS solution. Cells re-suspended in antibody cocktail were incubated for 20 minutes at 4° C. Cells were next washed twice with PBS and re-suspended in 1% FCS-PBS solution (volume based on cell number) and kept on ice until analyzed by FACS. Forward scatter (FSC) and side scatter parameters were selected with FITC fluorochrome excited by 488 nm argonion laser, PE fluorochrome excited by 488 nm and Hoechst fluorochrome excited by 350 nm helium-cadmium UV laser.
# (§2) Flow Cytometry data was produced using either BD FACS LSR Flow Cytometer (Becton Dickinson Biosciences) or BD FACS Aria™ II Flow Cytometer (Becton Dickinson Biosciences) and analyzed using the data acquisition software CellQuest Pro (Becton Dickinson Biosciences) and FlowJo (Tree Star Inc., Ashland, Oreg.) software at the MCRF facility, JCSMR, ANU, Canberra, Australia. Single colour controls were used to set compensation parameters. Isotype controls were used for all corresponding primary antibodies in each experiment.
# The FACS gating strategy used in this thesis is adopted and modified from the pioneer breast cancer stem cell publications (Al-Hajj et al., 2003) which sorted cells based on the CD44^high and CD24^low expression. […] To confirm that anti-CD44-APC and anti-CD24-PE antibodies were specific, isotype control antibodies were used. The isotype (negative controls) used for anti-CD24-PE was PE Mouse-Anti-human IgG2aK and for anti-CD44-APC was APC-Mouse-Anti-human IgG2bK. First, all the cells were stained with Hoechst 33258 to monitor cell viability. In addition cells were stained with varying concentrations of either APC or PE isotypes controls.
# (§3) The adherent human mammary adenocarcinoma MCF-7 and MDA-MB-231 cells were cultured in low glucose DMEM (Gibco) and both supplemented with 10% FCS, 2 mM L-glutamine and 0.1% PSN antibiotics. Cells were stimulated with 0.65 ng/ml of phorbol 12-myristate 13-acetate (PMA) (Sigma-Aldrich) or 20 ng/ml of TGF-β (R&D systems) for the times indicated. For Bisindolylmaleimide-I (Calbiochem) or PKC-θ peptide inhibitor (Calbiochem) studies, cells were pre-treated with 1 μM or 30 μM of inhibitor respectively for 1 h prior to stimulation in MCF-7 cells. In case of MDA-MB-231, cells were treated with 4 μM or 30 μM Bisindolylmaleimide-I or PKC-θ peptide inhibitor respectively.
# (§4) To separate CSC from non-CSC (NCSC), florescence activated cell sorting (FACS) was performed on single-cell suspensions that were stained with anti-CD44-APC (559942, BD Biosciences) and anti-CD24-PE antibodies (555428, BD Biosciences) along with Hoechst 33258 to monitor cell viability. As used throughout this work, CSC are defined by minority CD44^high/CD24^low, whereas NCSC are defined by rest of the cell populations.
# The adherent human mammary adenocarcinoma cell lines MCF-7 were cultured in low glucose DMEM (Gibco) and supplemented with 10% FCS, 2 mM L-glutamine, and 0.1% PSN antibiotics. Cells were stimulated with 0.65 ng/ml of phorbol 12-myristate 13-acetate (PMA) (Sigma-Aldrich) for 60 hours. FACS was performed on single-cell suspensions stained with anti-CD44-APC (559942, BD Biosciences) and anti-CD24-PE antibodies (555428, BD Biosciences), along with Hoechst 33258 (561908, BD Biosciences) to monitor cell viability as previously detailed (Zafar et al., Chromatinized PKC-theta directly regulates inducible genes in epithelial to mesenchymal transition and breast cancer stem cells. Molecular and Cellular Biology, 2014, 34:16 2961-2980). […]
# [2] = test system: MDA-MB 231 cells; test: FACS analysis of CD44high/CD24low CSC-like subpopulation in Basal/metastatic model; settings: NCD38 5 μM
# Protocol: as §1, §2, §3, §4
# [3] = test system: MDA-MB 231 cells; test: Phase contrast microscopy of EMT/MET in Basal/metastatic model; settings: NCD38 5 μM
# Protocol: (§5) Phase contrast microscopy was utilized for EMT and wound healing assays under 10× or 20× magnification of Olympus Fluorescence 1X71 microscope. Images were captured and analyzed as described above except that wound healing assay pictures were also analyzed by Image J software (Free software in Public domain developed by NIH).
# as §3
# (§6) phase contrast microscopy was performed where cells were viewed at ×4 magnification (wound healing assay) or ×10 magnification (EMT) using an Olympus fluorescence IX71 microscope (Olympus) and images were captured using DPController software (2002 Olympus Optical Co. LTD) and analyzed using Photoshop CS3 (Adobe Systems Inc.). Scans were taken with a 10 μm scale bar.
# [4] = test system: MCF-7 cells (mammospheres); test: Mammosphere assay in MCF-IM model; settings: NCD38 5 μM for 17 hr prior to PMA for 6 days, mammospheres larger than 60 μm counted
# Protocol: The following mammosphere culture media components were purchased from StemCell Technologies Inc., BC, Canada: Mammocult Basal medium (Human) (catalogue number-05621), Mammocult Proliferation Supplements (Human) (catalogue number-05622), heparin (catalogue number-07904) and hydrocortisone (catalogue number-[…]). Hydrocortisone powder was freshly dissolved into mammocult basal medium to get 10^−4M solution on the day of experiment. 50 mL of
# Mammocult complete media was then prepared by addition of 45 mL Mammocult basal medium, 5 mL mammocult proliferation supplements, 100 μL of the 0.2% heparin stock, 500 μL of 10^−4M stock of hydrocortisone and 50 μL of the PNS. Mammocult complete media was either used on same day or stored for not more than 7 days at 4° C.
# MCF-7 cells were grown in a 175 cm^2 cell culture flask and harvested using a cell scraper (Zellschaber, Switzerland) or FACS sorted as specified below. Importantly trypsin treatment was never used for harvesting cells as it interferes with the mammosphere assay. Harvested cells were then re-suspended in 1 mL mammocult complete media and centrifuged at 500×g for 3 minutes at 20° C. The cell pellet was then re-suspended in 1 mL mammocult complete media before counting the cells on the Vi-CELL counter. Cell dilutions were then prepared to stain 40,000 cells/2 mL and 2 mL of cells were seeded in the 6 well-ultra low adherent, flat bottom plates (Costar, Corning Inc, Corning, N.Y., USA). Cells were either stimulated or not treated according to the experimental protocol and incubated at 37° C., under 5% CO2 for 7 days in a Hepa-Filtered Infrared (IR) Incubator (Forma Scientific Inc., Materietta, Ohio). Mammospheres larger than 60 μm were counted per well on day 7 and pictures were taken with an Olympus microscope. All the mammosphere assays were performed in duplicate wells and the entire procedure was repeated at least twice.
# Mammosphere culture media components were purchased from StemCell Technologies and mammosphere assays were performed as recommended by the manufacturer's guidelines. Briefly, 40,000 cells/2 ml cell dilutions were then prepared and 2 ml of cells were seeded in the 6 well-ultralow adherent, flat bottom plates (Costar). Mammospheres larger than 60 μm were counted per well on day 7 and pictures were taken.
# [5] = test system: MCF-7 cells; test: EMT assay by phase contrast microscopy in MCF-IM model; settings: MCF-7 cells; PMA 20 ng/mL for 60 hr, compared with TNF-α, EGF, IL-6, TGF-β
# Protocol: EMT assays were performed in 24-well plates (Costar, Corning Inc., Corning, N.Y., USA). For this assay, usually MCF-7 cells were seeded at 4×10^4/well/500 μL media one day before the experiment unless otherwise specified. Cells were stimulated with various EMT stimuli prepared in warm media the following day and monitored for EMT changes under the microscope specified below. The percentage of EMT was generally calculated based on phenotype counting 100 cells per field under the microscope. All the potential EMT stimuli used herein are described in Table 6 and they were prepared and stored as per supplier specification.
# as §5
# The adherent human mammary adenocarcinoma MCF-7 and MDA-MB-231 cells were cultured in low glucose DMEM (Gibco) and both supplemented with 10% FCS, 2 mM L-glutamine and 0.1% PSN antibiotics. […] For Bisindolylmaleimide-I (Calbiochem) or PKC-θ peptide inhibitor (Calbiochem) studies, cells were pre-treated with 1 μM or 30 μM of inhibitor respectively for 1 h prior to stimulation in MCF-7 cells. In case of MDA-MB-231, cells were treated with 4 μM or 30 μM Bisindolylmaleimide-I or PKC-θ peptide inhibitor respectively.
# as §6
smiles,measurement,setting,value
CC(C)[C@@](C)(O)[C@@H]1CN(c2nc(-c3n[nH]c4ncccc34)c(F)cc2Cl)CCN1 [Compound C27],inhibition at 0.1 µM,"[1]; Homo sapiens, MCF7, MCF-IM model, C27 alone at 100 nM",~30%
same,inhibition at 0.5 µM,"[1]; Homo sapiens, MCF7, MCF-IM model, C27 alone at 500 nM",~90%
O=C(N[C@@H](CCNC1CC1c1ccccc1)C(=O)NCc1cccc(Cl)c1)c1ccc(-c2ccccc2)cc1 (some centres unmarked) [NCD-38],CD44 high CD24 low-CSC-like subpopulation (CSC formation) by FACS,[2],decrease of CSC formation
same,CD44 high CD24 low-CSC-like subpopulation (CSC formation) by FACS,[2]; listed as NCD38,inhibits CD44 high CD24 low-CSC-like subpopulation
same,"EMT / conversion of mesenchymal cells to epithelial cells (MET), phase contrast morphology",[3],conversion of mesenchymal cells in to epithelial cells
same,"EMT / conversion of mesenchymal cells to epithelial cells (MET), phase contrast morphology",[3]; listed as NCD38,inhibit EMT
same,mammosphere formation,[4],inhibition CSC formation
same,mammosphere formation,[4]; listed as NCD38,reduce mammosphere formation
same,inhibition at 2.5 µM,"[1]; Homo sapiens, MCF7, MCF-IM model, NCD-38 alone at 2.5 μM",~50%
same,inhibition at 5 µM,"[1]; Homo sapiens, MCF7, MCF-IM model, NCD-38 alone at 5 μM",~60%
same,CD44 high CD24 low-CSC-like subpopulation (CSC formation) by FACS,[1]; MCF-IM model,inhibition CSC formation
same,CD44 high CD24 low-CSC-like subpopulation (CSC formation) by FACS,"[1]; MCF-IM model, listed as NCD38",inhibits CD44 high CD24 low-CSC-like subpopulation
"CCCCCCCCCCCCCC(=O)O[C@@H]1[C@@H](C)[C@@]2(O)[C@@H](C=C(CO)C[C@]3(O)C(=O)C(C)=C[C@@H]23)[C@@H]2C(C)(C)[C@]12OC(C)=O [PMA, Phorbol 12-Myristate 13-Acetate]","EMT (percentage of the cells undergoing EMT, morphological changes)",[5],results in maximal EMT; also recorded: caused highest EMT changes
same,generation of CD44high/CD24low CSC-like cells by FACS,[1]; MCF-7 cells stimulated with PMA 0.65 ng/mL for 60 hr,generation of CD44^high/CD24^low-CSC like cells
